Reference: PubChem BioAssay (NCI)
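These data come from cells grown in 96-well plates and exposed to compound for 48 hours at five concentrations. At the GI50, growth is halved. TGI: concentration producing complete growth inhibition.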

tested on: HT29 colon; assay: DTP human tumour cell line panel, 48 h

SMILES | GI50 [µM] | TGI [µM]
C#Cc1cccc(Nc2nc3cc([N+](=O)[O-])ccc3nc2Nc2ccc(O)cc2)c1 | 1.71 | 3.42
CCOC(=O)C1=C(C)N(NC(=O)Nc2ccccc2)C2(N)N(NC(=O)Nc3ccccc3)C(C)=C(C(=O)OCC)C12C(=O)OCC (stereo not given) | – | > 100
Cn1cc(-c2cc3c(N4CCN(c5ncc([C@@](C)(N)c6ccc(F)cc6)cn5)CC4)ncnn3c2)cn1 | 3.35 | > 100
O=C(O)CSc1n[nH]c(-c2ccccc2O)n1 | – | > 100
CN(C)C=Nc1nc(=O)n(C2CCC(CO)O2)cc1F (stereo not given) | – | > 100
COc1cc2c(cc1OC)-c1cc(OC)c(OC)cc1C(CN(C)C)C2 (stereo not given) | > 10 | > 10
O=c1[nH]c(-c2ccccc2)nc2cc(Cl)ccc12 | – | > 100
O=C(NC1CCCCC1)NS(=O)(=O)c1ccc(N2N=C3c4ccccc4CC3C2c2ccc(Cl)cc2)cc1 (stereo not given) | 32.5 | > 100
CCCOc1nc(N)c2cnn(C3CCCCO3)c2n1 (stereo not given) | – | > 100
C/C(CN1C(=O)c2ccccc2C1=O)=N\NS(=O)(=O)c1ccc(Cl)cc1 | – | > 100
C[C@@H]1CC[C@H]2C(C)(C)[C@H]3C[C@@]12CC[C@@]3(C)O | – | > 100
COc1ccc(/C=C/COC(C)=O)cc1OC | – | > 100
Cc1ccc(NC2=C3CCCCC3OC2=O)cc1 (stereo not given) | 79.8 | > 100
CN(C)CC1CCC/C1=N/OC(=O)c1ccccc1 (stereo not given) | – | > 100
CC(C)[C@@H]1NC(=O)[C@]2(C)CSC(=N2)c2ccnc(c2)CNC(=O)C[C@@H](/C=C/CCS)OC1=O | 0.242 | 1.57
Fc1cc(-c2nnc3n2N=C(c2ccc(Cl)cc2)CS3)c(Cl)cc1Cl | 2.71 | –
COC1=CC(=O)C(C2(OC(C)C)OC(=O)C(Cl)=C2Cl)=CC1=O (stereo not given) | – | > 100
O=C(NC1C=CCC2C(=O)N(c3ccccc3)C(=O)C12)OCc1ccccc1 (stereo not given) | – | > 100
CN1C(=O)C(=O)N2c3ccc(Cl)cc3C3(c4ccccc4)N=CC12O3 (stereo not given) | – | 16.1
NCCNCCNCCN | > 100 | > 100
COc1ccc(C(c2cc(OC)c(OC)c(OC)c2)n2cncn2)cc1O (stereo not given) | 0.33 | 1.9
N#CCCC[Si]12OCCN(CCO1)CCO2 | – | > 100
CN1CCN(c2ccc(Nc3ncc(Cl)c(NC[C@@H]4CCCO4)n3)cc2)CC1 | 1.72 | > 100

tested on: MALME-3M melanoma; assay: DTP human tumour cell line panel, 48 h

SMILES | GI50 [µM] | TGI [µM]
COc1cc(-c2nc3sccn3c2-c2ccnc(NCCNS(=O)(=O)c3ccc(F)cc3)n2)ccc1F | 2.07 | 7.38
C#Cc1cccc(Nc2nc3cc([N+](=O)[O-])ccc3nc2Nc2ccc(O)cc2)c1 | 1.93 | 4.32
CN(C)CC(O)c1ccc(/C=C/c2ccc(Cl)cc2)cc1 (stereo not given) | 1.6 | 3.34
CCOC(=O)C1=C(C)N(NC(=O)Nc2ccccc2)C2(N)N(NC(=O)Nc3ccccc3)C(C)=C(C(=O)OCC)C12C(=O)OCC (stereo not given) | – | 93.5
Cn1cc(-c2cc3c(N4CCN(c5ncc([C@@](C)(N)c6ccc(F)cc6)cn5)CC4)ncnn3c2)cn1 | 4.16 | > 100
O=C(O)CSc1n[nH]c(-c2ccccc2O)n1 | – | > 100
CN(C)C=Nc1nc(=O)n(C2CCC(CO)O2)cc1F (stereo not given) | – | > 100
COc1cc2c(cc1OC)-c1cc(OC)c(OC)cc1C(CN(C)C)C2 (stereo not given) | > 10 | > 10
O=c1[nH]c(-c2ccccc2)nc2cc(Cl)ccc12 | – | > 100
CCCOc1nc(N)c2cnn(C3CCCCO3)c2n1 (stereo not given) | – | > 100
C/C(CN1C(=O)c2ccccc2C1=O)=N\NS(=O)(=O)c1ccc(Cl)cc1 | – | > 100
COc1ccc(/C=C/COC(C)=O)cc1OC | – | > 100
Cc1ccc(NC2=C3CCCCC3OC2=O)cc1 (stereo not given) | 39.2 | > 100
Fc1cc(-c2nnc3n2N=C(c2ccc(Cl)cc2)CS3)c(Cl)cc1Cl | 2.75 | 10.5
COC1=CC(=O)C(C2(OC(C)C)OC(=O)C(Cl)=C2Cl)=CC1=O (stereo not given) | – | > 100
CN1C(=O)C(=O)N2c3ccc(Cl)cc3C3(c4ccccc4)N=CC12O3 (stereo not given) | – | 47.2
N#CCCC[Si]12OCCN(CCO1)CCO2 | – | > 100
CN1CCN(c2ccc(Nc3ncc(Cl)c(NC[C@@H]4CCCO4)n3)cc2)CC1 | 1.49 | 8.06

tested on: 786-0 renal; assay: DTP human tumour cell line panel, 48 h

SMILES | GI50 [µM] | TGI [µM]
COc1cc(-c2nc3sccn3c2-c2ccnc(NCCNS(=O)(=O)c3ccc(F)cc3)n2)ccc1F | 0.503 | > 100
C#Cc1cccc(Nc2nc3cc([N+](=O)[O-])ccc3nc2Nc2ccc(O)cc2)c1 | 1.59 | 3.43
CN(C)CC(O)c1ccc(/C=C/c2ccc(Cl)cc2)cc1 (stereo not given) | 1.63 | 2.99
Cc1nnc2ccnn2c1C | > 100 | > 100
CCOC(=O)C1=C(C)N(NC(=O)Nc2ccccc2)C2(N)N(NC(=O)Nc3ccccc3)C(C)=C(C(=O)OCC)C12C(=O)OCC (stereo not given) | – | > 100
Cn1cc(-c2cc3c(N4CCN(c5ncc([C@@](C)(N)c6ccc(F)cc6)cn5)CC4)ncnn3c2)cn1 | 3.15 | > 100
O=C(O)CSc1n[nH]c(-c2ccccc2O)n1 | – | > 100
CN(C)C=Nc1nc(=O)n(C2CCC(CO)O2)cc1F (stereo not given) | – | > 100
COc1cc2c(cc1OC)-c1cc(OC)c(OC)cc1C(CN(C)C)C2 (stereo not given) | > 10 | > 10
O=c1[nH]c(-c2ccccc2)nc2cc(Cl)ccc12 | – | > 100
O=C(NC1CCCCC1)NS(=O)(=O)c1ccc(N2N=C3c4ccccc4CC3C2c2ccc(Cl)cc2)cc1 (stereo not given) | 13.3 | 26.3
CCCOc1nc(N)c2cnn(C3CCCCO3)c2n1 (stereo not given) | – | > 100
C/C(CN1C(=O)c2ccccc2C1=O)=N\NS(=O)(=O)c1ccc(Cl)cc1 | – | > 100
C[C@@H]1CC[C@H]2C(C)(C)[C@H]3C[C@@]12CC[C@@]3(C)O | – | > 100
COc1ccc(/C=C/COC(C)=O)cc1OC | – | > 100
Cc1ccc(NC2=C3CCCCC3OC2=O)cc1 (stereo not given) | > 100 | > 100
CN(C)CC1CCC/C1=N/OC(=O)c1ccccc1 (stereo not given) | – | > 100
CC(C)[C@@H]1NC(=O)[C@]2(C)CSC(=N2)c2ccnc(c2)CNC(=O)C[C@@H](/C=C/CCS)OC1=O | 0.911 | > 28
